# Experimental data taken from PMC9653409, “Generative deep learning enables the discovery of a potent and selective RIPK1 inhibitor” (Nature Communications, 2022).
# Experiments:
# Experiment in all cases: Kinase inhibitory activity profiling of RI-962@10 µM (406 kinases, Eurofins)
# Format in all cases: biochemical
# [1] = target: panel of human kinases (kinase named in endpoint) (Homo sapiens, UniProt O00141); conditions: 10 µM; read-out: Activity (%), SGK(h)
# Outline: (§1)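 Radiometric filter-binding kinase assays: enzyme preincubated 15 min with compound in 8 mM MOPS pH 7.0, 0.2 mM EDTA, 250 μM peptide substrate, 10 mM magnesium acetate, 10 μM [γ-33P]-ATP. Reaction started with Mg/ATP, run 40 min at room temperature, stopped with phosphoric acid; 33P incorporation read by scintillation counting. Other kinases by similar protocols.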
# [2] = target: panel of human kinases (kinase named in endpoint) (Homo sapiens, UniProt O75747); conditions: 10 µM; read-out: Activity (%), PI3KC2g(h)
# Outline: as §1
# [3] = target: panel of human kinases (kinase named in endpoint) (Homo sapiens, UniProt O94921); conditions: 10 µM; read-out: Activity (%), CDK14/cyclinY(h)
# Sequence of panel of human kinases (kinase named in endpoint) (Homo sapiens, UniProt O94921) (O94921 whole entry): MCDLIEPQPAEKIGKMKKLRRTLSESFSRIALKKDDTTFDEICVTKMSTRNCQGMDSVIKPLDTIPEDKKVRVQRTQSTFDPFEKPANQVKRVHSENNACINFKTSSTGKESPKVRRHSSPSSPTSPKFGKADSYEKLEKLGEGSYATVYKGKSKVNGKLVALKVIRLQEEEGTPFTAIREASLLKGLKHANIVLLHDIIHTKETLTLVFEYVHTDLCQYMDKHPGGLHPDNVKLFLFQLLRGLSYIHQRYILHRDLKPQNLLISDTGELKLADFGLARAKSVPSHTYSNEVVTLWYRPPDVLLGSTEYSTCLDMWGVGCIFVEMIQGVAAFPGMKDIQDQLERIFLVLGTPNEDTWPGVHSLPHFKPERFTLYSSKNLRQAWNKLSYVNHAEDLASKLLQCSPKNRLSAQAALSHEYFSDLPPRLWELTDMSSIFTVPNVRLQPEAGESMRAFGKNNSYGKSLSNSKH
# Outline: as §1
# [4] = target: panel of human kinases (kinase named in endpoint) (Homo sapiens, UniProt O95819); conditions: 10 µM; read-out: Activity (%), MAP4K4(h)
# Outline: as §1
# [5] = target: panel of human kinases (kinase named in endpoint) (Homo sapiens, UniProt O96017, I157T); conditions: 10 µM; read-out: Activity (%), CHK2(I157T)(h)
# Outline: as §1
# [6] = target: panel of human kinases (kinase named in endpoint) (Homo sapiens, UniProt P08581, M1250T); conditions: 10 µM; read-out: Activity (%), Met(M1268T)(h)
# Outline: as §1
# [7] = target: panel of human kinases (kinase named in endpoint) (Homo sapiens, UniProt P09619); conditions: 10 µM; read-out: Activity (%), PDGFRβ(h)
# Outline: as §1
# [8] = target: panel of human kinases (kinase named in endpoint) (Homo sapiens, UniProt P16234, V561D); conditions: 10 µM; read-out: Activity (%), PDGFRα(V561D)(h)
# Sequence of panel of human kinases (kinase named in endpoint) (Homo sapiens, UniProt P16234, V561D) (P16234 24-1089 V561D): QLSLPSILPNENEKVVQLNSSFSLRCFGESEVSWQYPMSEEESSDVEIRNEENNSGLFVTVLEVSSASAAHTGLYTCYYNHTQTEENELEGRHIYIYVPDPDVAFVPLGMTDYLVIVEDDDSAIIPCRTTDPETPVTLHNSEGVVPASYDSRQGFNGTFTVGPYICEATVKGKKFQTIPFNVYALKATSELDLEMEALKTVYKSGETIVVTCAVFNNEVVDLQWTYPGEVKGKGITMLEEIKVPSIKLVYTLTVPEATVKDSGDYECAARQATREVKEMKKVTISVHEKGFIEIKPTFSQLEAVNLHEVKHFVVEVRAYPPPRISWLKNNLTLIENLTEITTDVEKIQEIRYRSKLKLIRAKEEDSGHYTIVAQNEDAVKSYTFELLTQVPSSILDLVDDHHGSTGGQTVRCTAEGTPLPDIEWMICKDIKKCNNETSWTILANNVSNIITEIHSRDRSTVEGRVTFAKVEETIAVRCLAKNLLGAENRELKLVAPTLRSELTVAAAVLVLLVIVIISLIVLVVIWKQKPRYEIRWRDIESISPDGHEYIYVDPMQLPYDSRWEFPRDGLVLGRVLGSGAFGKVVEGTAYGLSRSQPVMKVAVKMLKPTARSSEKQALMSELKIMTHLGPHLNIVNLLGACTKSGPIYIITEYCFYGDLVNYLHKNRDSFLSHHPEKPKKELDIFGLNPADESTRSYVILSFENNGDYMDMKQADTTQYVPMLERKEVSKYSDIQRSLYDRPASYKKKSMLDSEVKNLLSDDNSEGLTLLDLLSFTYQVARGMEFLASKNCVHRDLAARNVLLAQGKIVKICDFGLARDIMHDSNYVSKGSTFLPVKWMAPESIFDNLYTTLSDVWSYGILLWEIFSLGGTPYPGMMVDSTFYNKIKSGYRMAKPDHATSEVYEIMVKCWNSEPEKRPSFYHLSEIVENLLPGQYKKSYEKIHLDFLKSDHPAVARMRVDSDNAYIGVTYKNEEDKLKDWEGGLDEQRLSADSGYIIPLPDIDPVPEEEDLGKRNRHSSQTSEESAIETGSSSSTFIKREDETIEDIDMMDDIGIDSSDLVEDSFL
# Outline: as §1
# [9] = target: panel of human kinases (kinase named in endpoint) (Homo sapiens, UniProt P19784); conditions: 10 µM; read-out: Activity (%), CK2α2(h)
# Sequence of panel of human kinases (kinase named in endpoint) (Homo sapiens, UniProt P19784) (P19784 whole entry): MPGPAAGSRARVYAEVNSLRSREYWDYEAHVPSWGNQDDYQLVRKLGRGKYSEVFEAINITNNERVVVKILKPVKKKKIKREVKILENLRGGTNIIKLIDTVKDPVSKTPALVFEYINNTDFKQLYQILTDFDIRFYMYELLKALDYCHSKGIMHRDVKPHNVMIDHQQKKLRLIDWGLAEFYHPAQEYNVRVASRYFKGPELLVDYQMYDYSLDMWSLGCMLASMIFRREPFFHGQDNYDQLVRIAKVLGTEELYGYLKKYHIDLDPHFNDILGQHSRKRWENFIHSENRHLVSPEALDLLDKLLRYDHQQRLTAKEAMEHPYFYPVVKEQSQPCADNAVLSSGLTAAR
# Outline: as §1
# [10] = target: panel of human kinases (kinase named in endpoint) (Homo sapiens, UniProt P29322); conditions: 10 µM; read-out: Activity (%), EphA8(h)
# Outline: as §1
# [11] = target: panel of human kinases (kinase named in endpoint) (Homo sapiens, UniProt P36507); conditions: 10 µM; read-out: Activity (%), MEK2(h)
# Outline: as §1
# [12] = target: panel of human kinases (kinase named in endpoint) (Homo sapiens, UniProt P51812); conditions: 10 µM; read-out: Activity (%), Rsk2(h)
# Sequence of panel of human kinases (kinase named in endpoint) (Homo sapiens, UniProt P51812) (P51812 whole entry): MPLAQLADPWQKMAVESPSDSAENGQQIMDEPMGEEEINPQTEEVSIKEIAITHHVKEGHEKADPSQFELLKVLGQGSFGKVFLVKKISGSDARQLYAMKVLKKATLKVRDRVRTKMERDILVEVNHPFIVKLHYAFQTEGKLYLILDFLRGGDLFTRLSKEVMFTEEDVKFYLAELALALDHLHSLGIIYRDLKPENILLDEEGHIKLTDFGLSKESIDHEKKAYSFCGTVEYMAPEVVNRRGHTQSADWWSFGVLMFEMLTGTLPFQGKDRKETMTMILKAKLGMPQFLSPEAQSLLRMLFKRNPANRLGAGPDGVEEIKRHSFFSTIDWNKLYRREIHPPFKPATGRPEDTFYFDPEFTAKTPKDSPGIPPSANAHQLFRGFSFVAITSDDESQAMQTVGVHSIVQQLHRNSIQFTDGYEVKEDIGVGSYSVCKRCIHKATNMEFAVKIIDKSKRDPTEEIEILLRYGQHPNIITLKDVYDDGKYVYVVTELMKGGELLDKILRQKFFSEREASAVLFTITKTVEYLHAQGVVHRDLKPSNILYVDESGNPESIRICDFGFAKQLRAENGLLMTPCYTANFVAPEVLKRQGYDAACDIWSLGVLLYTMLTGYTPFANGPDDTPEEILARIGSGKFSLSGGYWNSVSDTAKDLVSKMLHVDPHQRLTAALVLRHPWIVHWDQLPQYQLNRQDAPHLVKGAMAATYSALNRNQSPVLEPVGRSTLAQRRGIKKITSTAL
# Outline: as §1
# [13] = target: panel of human kinases (kinase named in endpoint) (Homo sapiens, UniProt P51955); conditions: 10 µM; read-out: Activity (%), NEK2(h)
# Outline: as §1
# [14] = target: panel of human kinases (kinase named in endpoint) (Homo sapiens, UniProt Q13535); conditions: 10 µM; read-out: Activity (%), ATR/ATRIP(h)
# Outline: as §1
# [15] = target: panel of human kinases (kinase named in endpoint) (Homo sapiens, UniProt Q16288); conditions: 10 µM; read-out: Activity (%), TrkC(h)
# Outline: as §1
# [16] = target: panel of human kinases (kinase named in endpoint) (Homo sapiens, UniProt Q6SA08); conditions: 10 µM; read-out: Activity (%), TSSK4(h)
# Outline: as §1
# [17] = target: panel of human kinases (kinase named in endpoint) (Homo sapiens, UniProt Q96QT4); conditions: 10 µM; read-out: Activity (%), ChaK1(h)
# Outline: as §1
# [18] = target: panel of human kinases (kinase named in endpoint) (Homo sapiens, UniProt Q99755); conditions: 10 µM; read-out: Activity (%), PIP5K1a(h)
# Sequence of panel of human kinases (kinase named in endpoint) (Homo sapiens, UniProt Q99755) (Q99755 whole entry): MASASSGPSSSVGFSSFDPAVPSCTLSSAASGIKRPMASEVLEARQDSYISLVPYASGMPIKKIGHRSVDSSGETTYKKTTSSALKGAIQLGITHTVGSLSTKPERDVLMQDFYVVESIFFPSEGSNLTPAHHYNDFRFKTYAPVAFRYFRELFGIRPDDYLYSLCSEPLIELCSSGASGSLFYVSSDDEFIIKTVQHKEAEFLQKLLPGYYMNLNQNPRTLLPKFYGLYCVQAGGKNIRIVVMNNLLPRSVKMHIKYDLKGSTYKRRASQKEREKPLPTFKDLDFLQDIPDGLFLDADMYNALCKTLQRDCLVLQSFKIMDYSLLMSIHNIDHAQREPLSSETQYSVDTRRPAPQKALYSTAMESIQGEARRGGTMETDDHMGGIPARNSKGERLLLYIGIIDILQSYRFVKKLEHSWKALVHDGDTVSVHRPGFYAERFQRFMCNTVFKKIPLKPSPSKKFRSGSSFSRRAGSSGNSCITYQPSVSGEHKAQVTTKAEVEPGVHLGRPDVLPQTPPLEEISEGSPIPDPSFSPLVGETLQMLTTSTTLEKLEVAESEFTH
# Outline: as §1
# [19] = target: panel of human kinases (kinase named in endpoint) (Homo sapiens, UniProt Q9H2X6); conditions: 10 µM; read-out: Activity (%), HIPK2(h)
# Outline: as §1
# [20] = target: panel of human kinases (kinase named in endpoint) (Homo sapiens, UniProt Q9NWZ3); conditions: 10 µM; read-out: Activity (%), IRAK4(h)
# Outline: as §1
# [21] = target: panel of human kinases (kinase named in endpoint) (Homo sapiens, UniProt Q9NZJ5); conditions: 10 µM; read-out: Activity (%), PEK(h)
# Sequence of panel of human kinases (kinase named in endpoint) (Homo sapiens, UniProt Q9NZJ5) (Q9NZJ5 30-1116): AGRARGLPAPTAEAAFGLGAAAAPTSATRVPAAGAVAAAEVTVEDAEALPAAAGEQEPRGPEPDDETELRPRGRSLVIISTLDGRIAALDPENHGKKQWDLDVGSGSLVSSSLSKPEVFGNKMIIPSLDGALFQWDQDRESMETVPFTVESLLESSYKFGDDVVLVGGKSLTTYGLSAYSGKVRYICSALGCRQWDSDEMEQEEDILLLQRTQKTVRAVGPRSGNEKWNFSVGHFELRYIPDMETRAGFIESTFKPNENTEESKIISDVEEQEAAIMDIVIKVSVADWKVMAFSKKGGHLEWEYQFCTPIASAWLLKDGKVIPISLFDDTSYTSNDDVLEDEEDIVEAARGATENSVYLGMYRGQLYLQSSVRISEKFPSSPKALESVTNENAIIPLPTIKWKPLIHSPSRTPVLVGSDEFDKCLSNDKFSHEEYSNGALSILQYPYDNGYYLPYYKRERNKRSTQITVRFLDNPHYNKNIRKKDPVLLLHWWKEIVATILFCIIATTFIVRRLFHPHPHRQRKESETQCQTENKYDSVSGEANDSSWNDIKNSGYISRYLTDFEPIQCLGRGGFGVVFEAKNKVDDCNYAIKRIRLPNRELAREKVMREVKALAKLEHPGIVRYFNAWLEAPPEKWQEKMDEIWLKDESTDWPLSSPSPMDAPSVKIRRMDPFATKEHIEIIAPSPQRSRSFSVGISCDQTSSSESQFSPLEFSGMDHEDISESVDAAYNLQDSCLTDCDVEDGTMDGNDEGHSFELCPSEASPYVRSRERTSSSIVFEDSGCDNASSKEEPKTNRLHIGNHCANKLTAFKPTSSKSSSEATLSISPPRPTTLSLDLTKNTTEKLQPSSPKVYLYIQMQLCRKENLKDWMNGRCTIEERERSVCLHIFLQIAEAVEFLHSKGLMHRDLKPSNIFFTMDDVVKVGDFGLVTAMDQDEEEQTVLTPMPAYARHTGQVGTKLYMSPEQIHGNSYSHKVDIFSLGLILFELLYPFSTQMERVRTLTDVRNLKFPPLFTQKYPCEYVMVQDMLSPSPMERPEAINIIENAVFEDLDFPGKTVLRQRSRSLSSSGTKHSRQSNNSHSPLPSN
# Outline: as §1
# [22] = target: panel of human kinases (kinase named in endpoint) (Homo sapiens, UniProt Q9P2K8); conditions: 10 µM; read-out: Activity (%), GCN2(h)
# Outline: as §1
# [23] = target: panel of human kinases (kinase named in endpoint) (Homo sapiens, UniProt Q9UEE5); conditions: 10 µM; read-out: Activity (%), DRAK1(h)
# Outline: as §1
# [24] = target: panel of human kinases (kinase named in endpoint) (Homo sapiens, UniProt Q9UK32); conditions: 10 µM; read-out: Activity (%), Rsk4(h)
# Sequence of panel of human kinases (kinase named in endpoint) (Homo sapiens, UniProt Q9UK32) (Q9UK32 whole entry): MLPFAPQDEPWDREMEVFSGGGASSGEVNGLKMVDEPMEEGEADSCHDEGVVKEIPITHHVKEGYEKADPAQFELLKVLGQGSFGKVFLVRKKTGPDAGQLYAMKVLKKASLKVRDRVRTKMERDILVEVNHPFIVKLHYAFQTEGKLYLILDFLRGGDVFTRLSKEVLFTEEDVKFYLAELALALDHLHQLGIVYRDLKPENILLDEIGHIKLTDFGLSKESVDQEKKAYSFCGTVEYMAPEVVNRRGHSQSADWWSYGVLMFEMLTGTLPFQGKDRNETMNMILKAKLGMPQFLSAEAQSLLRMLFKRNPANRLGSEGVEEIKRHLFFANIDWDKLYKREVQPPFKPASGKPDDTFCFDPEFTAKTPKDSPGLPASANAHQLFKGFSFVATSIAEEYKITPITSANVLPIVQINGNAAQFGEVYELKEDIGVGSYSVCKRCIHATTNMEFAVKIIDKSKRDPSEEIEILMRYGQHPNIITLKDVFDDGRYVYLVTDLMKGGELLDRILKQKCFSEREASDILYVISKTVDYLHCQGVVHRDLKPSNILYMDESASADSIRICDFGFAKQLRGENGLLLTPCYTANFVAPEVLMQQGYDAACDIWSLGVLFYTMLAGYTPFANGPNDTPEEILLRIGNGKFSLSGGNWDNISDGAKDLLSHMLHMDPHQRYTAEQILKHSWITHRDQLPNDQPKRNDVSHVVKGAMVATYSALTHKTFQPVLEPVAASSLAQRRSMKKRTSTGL
# Outline: as §1
# [25] = target: panel of human kinases (kinase named in endpoint) (Homo sapiens, UniProt Q9Y6E0); conditions: 10 µM; read-out: Activity (%), MST3(h)
# Outline: as §1
smiles,measurement,setting,value
CC(C)C(=O)Nc1nc2cc(-c3ccc4c(c3)c(C(=O)NC(C)c3ccccc3)cn4C)ccn2n1 (stereo not shown) [RI-962],activity at 10 µM,[1],85%
same,activity at 10 µM,[2],99%
same,activity at 10 µM,[3],91%
same,activity at 10 µM,[4],88%
same,activity at 10 µM,[5],92%
same,activity at 10 µM,[6],115%
same,activity at 10 µM,[7],107%
same,activity at 10 µM,[8],102%
same,activity at 10 µM,[9],85%
same,activity at 10 µM,[10],88%
same,activity at 10 µM,[11],86%
same,activity at 10 µM,[12],106%
same,activity at 10 µM,[13],100%
same,activity at 10 µM,[14],108%
same,activity at 10 µM,[15],56%
same,activity at 10 µM,[16],104%
same,activity at 10 µM,[17],85%
same,activity at 10 µM,[18],106%
same,activity at 10 µM,[19],72%
same,activity at 10 µM,[20],79%
same,activity at 10 µM,[21],94%
same,activity at 10 µM,[22],76%
same,activity at 10 µM,[23],100%
same,activity at 10 µM,[24],61%
same,activity at 10 µM,[25],149%
